Source: ChEMBL document CHEMBL4043159, “Structural evidence for the DPPH radical-scavenging mechanism of 2-O-α-d-glucopyranosyl-l-ascorbic acid” (Bioorg Med Chem, 2017)
Active and inactive are the calls of the source. No cut-off for these calls is given here.

Assays:
Assay type in all cases: functional
[1] = Antioxidant activity assessed as DPPH free radical scavenging activity by measuring radical-scavenging activity factor (moles of radicals scavenged by each mol of antioxidant) at 20 uM measured at 30 mins by HPLC
[2] = Antioxidant activity assessed as DPPH free radical scavenging activity by measuring AA-2G-DPPH adducts level at 200 uM measured at 10 mins by HPLC
[3] = Antioxidant activity assessed as DPPH free radical scavenging activity by measuring AA-2G-DPPH adducts formation at 5 mM incubated for 10 to 30 mins by 1H NMR spectroscopy
[4] = Antioxidant activity assessed as DPPH free radical scavenging activity by measuring radical-scavenging activity factor (moles of radicals scavenged by each mol of antioxidant) at 20 uM measured at 10 mins by HPLC
[5] = Antioxidant activity assessed as DPPH free radical scavenging activity by measuring AA-2G-DPPH adducts formation at 200 uM measured within 10 mins by HPLC
[6] = Antioxidant activity assessed as DPPH free radical scavenging activity by measuring retention time of AA-2G-DPPH product at 20 uM incubated for 30 mins by HPLC method
[7] = Antioxidant activity assessed as time duration for DPPH free radical scavenging activity at 20 uM by HPLC
[8] = Antioxidant activity assessed as DPPH free radical scavenging activity by measuring radical-scavenging activity factor (moles of radicals scavenged by each mol of antioxidant) at 20 uM measured at 120 mins by HPLC
[9] = Antioxidant activity assessed as DPPH free radical scavenging activity by measuring AA-2G-DPPH product formation at 0.25 to 0.75 mM incubated for 30 mins by HPLC method
[10] = Antioxidant activity assessed as DPPH free radical scavenging activity by measuring radical-scavenging activity factor (moles of radicals scavenged by each mol of antioxidant) at 20 uM measured at 15 mins by HPLC
[11] = Antioxidant activity assessed as DPPH free radical scavenging activity by measuring amount of compound consumed at 200 uM measured at 10 mins by HPLC

Compound	scavenging factor [1] [mol/mol]	Activity [2] [µM]	Activity [3]	scavenging factor [4] [mol/mol]	Activity [5]	Retention time [6] [min]	TIME [7] [h]	scavenging factor [8] [mol/mol]	Activity [9]	scavenging factor [10] [mol/mol]	Activity [11] [µM]	Activity [6]
O=C1O[C@H]([C@@H](O)CO)C(O)=C1O[C@H]1O[C@H](CO)[C@@H](O)[C@H](O)[C@H]1O	2.1	190	Active	1.5	Active	15	2	2.7	Dose-dependent effect	1.7	190	
O=C1O[C@H]([C@@H](O)CO)C(O)=C1O	1.9			1.8			< 0.0167	1.9		1.8		inactive
